{"source": "patent US20190240282A1", "about": "“Nanocage” (IMPERIAL INNOVATIONS LIMITED, priority 2016, published 2019)", "key": {"[1]": {"system": "HT-29 cells", "assay": "LC-MS of lysed cells after dosing with the nanocage-antibody complex", "format": "cell-based", "details": "delivered by the nanocage with anti-EGFR; cells washed prior to lysis", "method": "HT-29 cells were grown in DMEM medium with 10% FBS overnight. Cells were then treated with the nanocage-antibody complex (100 μl) at 37° C. for different 48 h and 72 h. After incubation, the cells were washed 3× with cold PBS. Re-suspended cells were analysed by LC-MS (Agilent 6550), data were quantified using a 20 ppm window for Dox and PI based on a calibrated standard;\nPurified protein and cell extract samples were analysed by LCMS on an Agilent 6550. LC separation was achieved using a 1290 Infinity system (Agilent, Santa Clara, Calif.) and a Vydac 214MS C4 column, 2.1×150 mm and […], (Grace, Columbia, Md.) at a temperature of 35° C. with a buffer flow rate of 0.2 ml/min. with a denaturing mobile phase: buffer A was 0.1% formic acid in water and buffer B was 0.1% formic acid in acetonitrile. Elution of components was achieved using a linear gradient from 3% to 40% buffer B over 18.5 min. On-line mass spectra were accumulated on a 6550 quadrupole time-of-flight instrument with a dual electrospray Jet Stream source (Agilent). Mass spectra were acquired of the m/z range of 100-1700 at a rate of 0.6 spectra per second. […]\nFurther evaluation of drug delivery was performed by mass spectrometry. Following the dosing procedure used above, cells were washed prior to lysis and drug presence measured by LC-MS (Agilent 6550). […]"}, "[2]": {"system": "HT-29 cells", "assay": "Phenotypic cell death assay using Vybrant cell staining and flow cytometry", "format": "cell-based", "details": "after 48 h, free drug alone, 5 μM", "method": "HT-29 cells were trypsinised and cell viability was assessed using the Trypan blue exclusion assay—count cells treated with Trypan blue dye using a haemocytometer, and determine the volume of cell suspension that contains 5×10^5 live cells. Live cells (5×10^5) seeded into a 12-well plate with a final volume of 500 μL. This final 500 μL volume will consist of 5×10^5 cells+medium+drug-Au-ZZ-hFTN+anti-EGFR antibody (0.5-1 μg). The plate was incubated in a tissue culture incubator set at 37° C., 5% CO2, 95% humidity for 24 h or 48 h before the experiment was stopped. Uptake of drug-Au-ZZ-hFTN by cells was stopped by removing the 500 μL solution containing test or control compounds, trypsinising cells and pelleting cells in preparation for cytotoxicity assays, e.g. Vybrant cell apoptosis assay. […] Within 30 min after the incubation period, the stained cells were analysed by flow cytometry, using 488 nm excitation with green fluorescence emission for YOPRO R-1 (i.e., 530/30 bandpass) and red fluorescence emission for propidium iodide (i.e., 610/20 bandpass), gating on cells to exclude debris. […] The stained cell population will separate into three groups: live cells show a low level of green fluorescence, apoptotic cells show an incrementally higher level of green fluorescence, and dead cells show both red and green fluorescence. […]"}, "[3]": {"system": "MNK1.1 cells", "assay": "Flow cytometry, antibody directed cell binding of GFP nanocage", "format": "cell-based, mouse", "method": "(§1) Purified wt ZZ-GFP-hFTN (20 μg) was mixed with either anti-NK1.1 antibody (1 μg) or anti-EGFR antibody (1 μg) in 210 μl of PBS. For each assay, 50 μl of the nanocage-antibody was mixed with 1×10^6 cells of either HT29 or MNK1.1 in 100 μl. Cells were analysed an a BD Fortessa using the FITC channel (ex 488 nm; emm 530-30 nm) to observe GFP fluorescence. […] Nanocage antibody are shown with MNK1.1 cells (B) and HT29 cells (D);\n(§2) Flow cytometry was performed on a BD Fortessa using the FITC channel to observe GFP (ex 488 nm; emm 530-30 nm; ToPro-3 was imaged in red channel (640 nm ex; 670/14 emission). Data was analysed using Flow-Jo software.\n(§3) Ferritin fusions containing an N-terminal ZZ domain, in principle, should be able to bind to IgG isotype antibodies since the Z-domain is a synthetic derivative of an IgG binding domain from Staphylococcus aureus protein A. The inventors evaluated the specificity with which they can direct the targeting of the ferritin nanocage to specific cell types by direct antibody interactions. To establish a fluorescent basis for determining cell binding they used the GFP labelled wt ZZ-GFP-hFTN."}, "[4]": {"system": "HT29 cells", "assay": "Flow cytometry, antibody directed cell binding of GFP nanocage", "format": "cell-based", "method": "as §1, §2, §3"}}}
{"molecule": "COc1cccc2c1C(=O)c1c(O)c3c(c(O)c1C2=O)C[C@@](O)(C(=O)CO)C[C@@H]3O[C@H]1C[C@H](N)[C@H](O)[C@H](C)O1", "note": "[Dox, doxorubicin]", "values": [{"measurement": "drug presence in lysed cells by LC-MS", "setting": "[1]", "value": "present in the lysed cells"}]}
{"molecule": "CC[N+](C)(CC)CCC[n+]1c(-c2ccccc2)c2cc(N)ccc2c2ccc(N)cc21.[I-].[I-]", "note": "[PI, propidium iodide]", "values": [{"measurement": "drug presence in lysed cells by LC-MS", "setting": "[1]", "value": "present in the lysed cells"}]}
{"molecule": "CC(=O)O[C@H]1C(=O)[C@@]2(C)[C@H]([C@H](OC(=O)c3ccccc3)[C@]3(O)C[C@H](OC(=O)[C@H](O)[C@@H](NC(=O)c4ccccc4)c4ccccc4)C(C)=C1C3(C)C)[C@]1(OC(C)=O)CO[C@@H]1C[C@@H]2O", "note": "[Pac, Paclitaxel]", "values": [{"measurement": "cell death", "setting": "[2]", "value": "~9", "unit": "%"}]}
{"molecule": "wt ZZ-GFP-hFTN: wild-type human heavy chain ferritin with N-terminal ZZ antibody binding domain and GFP, forms nanocage", "values": [{"measurement": "binding of the nanocage to cells (GFP fluorescence)", "setting": "[3]; absence of antibody", "value": "no discernible background binding"}, {"measurement": "binding of the nanocage to cells (GFP fluorescence)", "setting": "[3]; presence of anti-NK1.1 antibody", "value": "complete shift in the fluorescence of the population"}, {"measurement": "binding of the nanocage to cells (GFP fluorescence)", "setting": "[4]; absence of antibody", "value": "no discernible background binding"}, {"measurement": "binding of the nanocage to cells (GFP fluorescence)", "setting": "[4]; presence of anti-EGFR antibody", "value": "complete shift in the fluorescence of the population"}]}
